Experimental data: patent US8557741B2, “3-aminocarbonyl-substituted benzoylcyclohexanediones and their use as herbicides” (Bayer CropScience AG, priority 2010, dated 2013)

Assays:
Assay type in all cases: in vivo
[1] = system: Stellaria media; experiment: Pre-emergence herbicidal action against harmful plants; conditions: 504 h, read-out: Herbicidal action against STEME; for pest or weed control at 320 g/ha: dosage 320 g/ha, visual assessment after 3 weeks (Table A); for pest or weed control at 80 g/ha: dosage 80 g/ha, visual assessment after 3 weeks (Table B)
Source text: (§1) The abbreviations used in the tables below denote: • ABUTH Abutilon theophrasti • AMARE Amaranthus retroflexus • ECHCG Echinochloa crus galli • PHBPU Phartoitis purpureum • STEME Stellaria media • ALOMY Alopecurus myosuroides • AVEFA Avena fatua • MATIN Matricaria inodora • POLCO Fallopia convolvulus • VERPE Veronica persica 1. Pre-emergence Herbicidal Action Against Harmful Plants Seeds of monocotyledonous and dicotyledonous weed plants and crop plants are placed in wood-fibre pots in sandy loam and covered with soil. The compounds according to the invention and the compounds known from the prior art, formulated in the form of wettable powders (WP) or as emulsion concentrates (EC), are then applied as aqueous suspension or emulsion at a water application rate of 600 to 800 I/ha (converted) with the addition of 0.2% of wetting agent to the surface of the covering soil. After the treatment, the pots are placed in a greenhouse and kept under good growth conditions for the test plants. The visual assessment of the damage to the test plants is carried out after a trial period of 3 weeks by comparison with untreated controls (herbicidal activity in percent (%): 100% activity=the plants have died, 0% activity=like control plants, —=not tested). The results of comparative table A show the compounds according to the invention have a higher herbicidal activity than the compounds of the greatest structural similarity known from the closest prior art.

[2] = system: Alopecurus myosuroides; experiment: as above; conditions: dosage 320 g/ha, visual assessment after 3 weeks (Table A)
Source text: as §1

[3] = system: Echinochloa crus galli; experiment: as above; conditions: Echinochloa, 504 h, dosage 320 g/ha, visual assessment after 3 weeks (Table A), read-out: Herbicidal action against ECHCG
Source text: as §1

[4] = system: Veronica persica; experiment: as above; conditions: 504 h, read-out: Herbicidal action against VERPE; for pest or weed control at 320 g/ha: dosage 320 g/ha, visual assessment after 3 weeks (Table A); for pest or weed control at 80 g/ha: dosage 80 g/ha, visual assessment after 3 weeks (Table B)
Source text: as §1

[5] = system: Abutilon theophrasti; experiment: as above; conditions: Abutilon theophrasti, 504 h, read-out: Herbicidal action against ABUTH; for pest or weed control at 320 g/ha: dosage 320 g/ha, visual assessment after 3 weeks (Table A); for pest or weed control at 80 g/ha: dosage 80 g/ha, visual assessment after 3 weeks (Table B)
Source text: as §1

[6] = system: Amaranthus retroflexus; experiment: as above; conditions: 504 h, read-out: Herbicidal action against AMARE; for pest or weed control at 320 g/ha: dosage 320 g/ha, visual assessment after 3 weeks (Table A); for pest or weed control at 80 g/ha: dosage 80 g/ha, visual assessment after 3 weeks (Table B)
Source text: as §1

[7] = system: Matricaria inodora; experiment: as above; conditions: Tripleurospermum inodorum, 504 h, dosage 320 g/ha, visual assessment after 3 weeks (Table A), read-out: Herbicidal action against MATIN
Source text: as §1

[8] = system: Stellaria media; experiment: Post-emergence herbicidal action against harmful plants; conditions: 504 h, read-out: Herbicidal action against STEME; for pest or weed control at 80 g/ha: dosage 80 g/ha, visual rating after about 3 weeks (Table D); for pest or weed control at 20 g/ha: dosage 20 g/ha, visual rating after about 3 weeks (Table F)
Source text: (§2) The abbreviations used in the tables below denote: • ABUTH Abutilon theophrasti • AMARE Amaranthus retroflexus • ECHCG Echinochloa crus galli • PHBPU Phartoitis purpureum • STEME Stellaria media • ALOMY Alopecurus myosuroides • AVEFA Avena fatua • MATIN Matricaria inodora • POLCO Fallopia convolvulus • VERPE Veronica persica 1. Pre-emergence Herbicidal Action Against Harmful Plants Seeds of monocotyledonous and dicotyledonous weed and crop plants are placed in sandy loam in wood-fibre pots, covered with soil and cultivated in a greenhouse under good growth conditions. 2 to 3 weeks after sowing, the test plants are treated at the one-leaf stage. The compounds according to the invention, formulated in the form of wettable powders (WP) or as emulsion concentrates (EC), are then sprayed as aqueous suspension or emulsion at a water application rate of 600 to 800 I/ha (converted) with the addition of 0.2% of wetting agent onto the green parts of the plants. After the test plants have been kept in the greenhouse under optimum growth conditions for about 3 weeks, the activity of the preparations is rated visually in comparison to untreated controls (herbicidal activity in percent (%): 100% activity=the plants have died, 0% activity=control plants, —=not tested).

[9] = system: Echinochloa crus galli; experiment: as above; conditions: 504 h, read-out: Herbicidal action against ECHCG; for pest or weed control at 80 g/ha: dosage 80 g/ha, visual rating after about 3 weeks (Table D); for pest or weed control at 20 g/ha: dosage 20 g/ha, visual rating after about 3 weeks (Table F)
Source text: as §2

[10] = system: Phartoitis purpureum; experiment: as above; conditions: 504 h; for pest or weed control at 80 g/ha: dosage 80 g/ha, visual rating after about 3 weeks (Table D), read-out: Herbicidal action against PHBPU; for pest or weed control at 20 g/ha: dosage 20 g/ha, visual rating after about 3 weeks (Table F), read-out: Herbicidal action against PHPBU
Source text: as §2

[11] = system: Veronica persica; experiment: as above; conditions: 504 h, read-out: Herbicidal action against VERPE; for pest or weed control at 80 g/ha: dosage 80 g/ha, visual rating after about 3 weeks (Table D); for pest or weed control at 20 g/ha: dosage 20 g/ha, visual rating after about 3 weeks (Table F)
Source text: as §2

[12] = system: Abutilon theophrasti; experiment: as above; conditions: 504 h, read-out: Herbicidal action against ABUTH; for pest or weed control at 80 g/ha: dosage 80 g/ha, visual rating after about 3 weeks (Table D); for pest or weed control at 20 g/ha: dosage 20 g/ha, visual rating after about 3 weeks (Table F)
Source text: as §2

[13] = system: Amaranthus retroflexus; experiment: as above; conditions: 504 h, read-out: Herbicidal action against AMARE; for pest or weed control at 80 g/ha: dosage 80 g/ha, visual rating after about 3 weeks (Table D); for pest or weed control at 20 g/ha: dosage 20 g/ha, visual rating after about 3 weeks (Table F)
Source text: as §2

[14] = system: Fallopia convolvulus; experiment: as above; conditions: 504 h, dosage 80 g/ha, visual rating after about 3 weeks (Table D), read-out: Herbicidal action against POLCO
Source text: as §2

[15] = system: Avena fatua; experiment: Pre-emergence herbicidal action against harmful plants; conditions: dosage 320 g/ha, visual assessment after 3 weeks (Table A)
Source text: as §1

[16] = system: Matricaria inodora; experiment: Post-emergence herbicidal action against harmful plants; conditions: Tripleurospermum inodorum, 504 h, read-out: Herbicidal action against MATIN; for pest or weed control at 80 g/ha: dosage 80 g/ha, visual rating after about 3 weeks (Table D); for pest or weed control at 20 g/ha: dosage 20 g/ha, visual rating after about 3 weeks (Table F)
Source text: as §2

[17] = system: VIOTR; experiment: as above; conditions: dosage 20 g/ha, visual rating after about 3 weeks (Table F)
Description: as §2, with “Seeds” for “The abbreviations used in the tables below denote: • ABUTH Abutilon theophrasti • AMARE Amaranthus retroflexus • ECHCG Echinochloa crus galli • PHBPU Phartoitis purpureum • STEME Stellaria media • ALOMY Alopecurus myosuroides • AVEFA Avena fatua • MATIN Matricaria inodora • POLCO Fallopia convolvulus • VERPE Veronica persica 1. Pre-emergence Herbicidal Action Against Harmful Plants Seeds”

[18] = system: VIOTR; experiment: Pre-emergence herbicidal action against harmful plants; conditions: dosage 80 g/ha, visual assessment after 3 weeks (Table B)
Source text: as §1, with “Seeds” for “The abbreviations used in the tables below denote: • ABUTH Abutilon theophrasti • AMARE Amaranthus retroflexus • ECHCG Echinochloa crus galli • PHBPU Phartoitis purpureum • STEME Stellaria media • ALOMY Alopecurus myosuroides • AVEFA Avena fatua • MATIN Matricaria inodora • POLCO Fallopia convolvulus • VERPE Veronica persica 1. Pre-emergence Herbicidal Action Against Harmful Plants Seeds”

| Structure (SMILES) | pest or weed control at 320 g/ha [1] [%] | pest or weed control at 320 g/ha [3] [%] | pest or weed control at 320 g/ha [4] [%] | pest or weed control at 320 g/ha [5] [%] | pest or weed control at 320 g/ha [6] [%] | pest or weed control at 320 g/ha [7] [%] | pest or weed control at 80 g/ha [8] [%] | pest or weed control at 80 g/ha [9] [%] | pest or weed control at 80 g/ha [10] [%] | pest or weed control at 80 g/ha [11] [%] | pest or weed control at 80 g/ha [12] [%] | pest or weed control at 80 g/ha [13] [%] | pest or weed control at 80 g/ha [14] [%] | pest or weed control at 80 g/ha [5] [%] | Herbicidal action against VIOTR [17] [%] | pest or weed control at 20 g/ha [8] [%] | pest or weed control at 20 g/ha [10] [%] | pest or weed control at 20 g/ha [11] [%] | further results |
| --- | --- | --- | --- | --- | --- | --- | --- | --- | --- | --- | --- | --- | --- | --- | --- | --- | --- | --- | --- |
| CCS(=O)(=O)c1ccc(C(=O)C2=C(O)CCCC2=O)c(C(F)(F)F)c1OCC(=O)N(C)C [Compound E5] | 90 | 100 | 100 | 100 | 100 | 100 | 90 | 90 | 90 | 100 | 90 | 80 | 80 | – | – | – | – | – | Herbicidal action against ALOMY [2]: 100% |
| CCN(C)C(=O)COc1c(S(C)(=O)=O)ccc(C(=O)C2=C(O)CCCC2=O)c1C(F)(F)F [Compound E7] | 100 | 100 | 100 | 100 | 100 | 100 | 100 | 90 | 100 | 100 | 90 | 100 | 80 | – | – | – | – | – | Herbicidal action against AVEFA [15]: 80%; pest or weed control at 80 g/ha [16]: 100% |
| CCS(=O)(=O)c1ccc(C(=O)C2=C(SCC(=O)OC)CCCC2=O)c(Cl)c1OCC(=O)N(C)C [Compound S9, reference compound] | – | – | – | – | – | – | – | – | – | – | – | – | – | 20 | 60 | 70 | 60 | 80 | pest or weed control at 80 g/ha [4]: 20%; pest or weed control at 80 g/ha [6]: 40%; pest or weed control at 20 g/ha [9]: 90%; pest or weed control at 20 g/ha [12]: 80% |
| CCS(=O)(=O)c1ccc(C(=O)C2=C(O)CCCC2=O)c(Cl)c1OCC(=O)N(C)C [Compound S5, reference compound] | 90 | 100 | 100 | 90 | 100 | 90 | 80 | 40 | 60 | 100 | 90 | 80 | 20 | – | – | – | – | – | Herbicidal action against ALOMY [2]: 0% |
| CCS(=O)(=O)c1ccc(C(=O)C2=C(O)CCCC2=O)c(Cl)c1OC(C)C(=O)NC (stereo not shown) [Compound S11, reference compound] | – | – | – | – | – | – | – | – | – | – | – | – | – | 70 | 70 | 80 | 70 | 90 | Herbicidal action against VIOTR [18]: 40%; pest or weed control at 80 g/ha [1]: 30%; pest or weed control at 20 g/ha [13]: 90%; pest or weed control at 20 g/ha [16]: 70% |
| CCS(=O)(=O)c1ccc(C(=O)C2=C(SCC(=O)OC)CCCC2=O)c(C(F)(F)F)c1OCC(=O)N(C)C [Compound E9] | – | – | – | – | – | – | – | – | – | – | – | – | – | 90 | 100 | 90 | 80 | 100 | pest or weed control at 80 g/ha [4]: 90%; pest or weed control at 80 g/ha [6]: 90%; pest or weed control at 20 g/ha [9]: 90%; pest or weed control at 20 g/ha [12]: 100% |
| CCS(=O)(=O)c1ccc(C(=O)C2=C(O)CCCC2=O)c(C(F)(F)F)c1OC(C)C(=O)NC (stereo not shown) [Compound E11] | – | – | – | – | – | – | – | – | – | – | – | – | – | 90 | 100 | 90 | 80 | 100 | Herbicidal action against VIOTR [18]: 90%; pest or weed control at 80 g/ha [1]: 70%; pest or weed control at 20 g/ha [13]: 100%; pest or weed control at 20 g/ha [16]: 90% |
| CCN(C)C(=O)COc1c(S(C)(=O)=O)ccc(C(=O)C2=C(O)CCCC2=O)c1Cl [Compound S7, reference compound] | 90 | 80 | 100 | 80 | 100 | 100 | 90 | 60 | 90 | 100 | 90 | 70 | 10 | – | – | – | – | – | Herbicidal action against AVEFA [15]: 0%; pest or weed control at 80 g/ha [16]: 80% |
